The values below come from patent US20140224680A1, “KIT-OF-PARTS” (BOEHRINGER INGELHEIM VETMEDICA GMBH, priority 2013, published 2014).

Where a name gives a salt, the structure may show the parent alone.

The nature of the data set: lipophilicity profile. It counts as physicochemical. The settings on record: neutral pH values versus acidic pH values. From the text:
Usually, EC/HPMC films show sustained release behavior more or less independent of pH. […] This, together with the coating applied, is expected to result in a slower release at neutral pH values, sufficient to use the respective multi-layered particles for the application of this drug for the treatment of animals like cats.

Turning to `COc1ccc(CCN2CCC[C@H](CN3CCc4cc(OC)c(OC)cc4CC3=O)C2)cc1OC` [cilobradine hydrochloride], the lipophilicity entry was “slightly more lipophilic at neutral pH values than at acidic pH values”.
